{"source": "patent US7186722B2", "about": "“2-heteroaryl-3,4-dihydro-2h-pyrrole derivatives and the use thereof as pesticides” (Bayer Cropscience AG, priority 2001, dated 2007)", "assay_type_in_all_cases": "in vivo", "key": {"[1]": {"test_system": "peach aphid (Myzus persicae)", "experiment": "Myzus Test", "settings": "1000 ppm, cabbage leaves dipped", "protocol": "• Solvent: 7 parts by weight of dimethylformamide • Emulsifier: 1 part by weight of alkylaryl polyglycol ether\n(§1) To produce a suitable preparation of active compound, 1 part by weight of active compound is mixed with the stated amounts of solvent and emulsifier, and the concentrate is diluted with emulsifier-containing water to the desired concentration.\nCabbage leaves (Brassica oleracea) which are heavily infested by the peach aphid (Myzus persicae) are treated by being dipped into the preparation of active compound of the desired concentration.\nAfter the desired period of time, the kill in % is determined. 100% means that all aphids have been killed; 0% means that none of the aphids have been killed."}, "[2]": {"test_system": "caterpillars of the diamond back moth (Plutella xylostella)", "experiment": "Plutella Test", "settings": "8 ppm, cabbage leaves dipped", "protocol": "(§2) • Solvent: 30 parts by weight of dimethylformamide • Emulsifier: 1 part by weight of alkylaryl polyglycol ether\nas §1\nCabbage leaves (Brassica oleracea) are treated by being dipped into the preparation of active compound of the desired concentration and are populated with caterpillars of the diamond back moth (Plutella xylostella) while the leaves are still moist.\nAfter the desired period of time, the kill in % is determined. 100% means that all caterpillars have been killed; 0% means that none of the caterpillars have been killed."}, "[3]": {"test_system": "greenhouse red spider mite (Tetranychus urticae)", "experiment": "Tetranychus Test (OP-resistent/dip treatment)", "settings": "500 ppm, bean plants dipped, OP-resistent", "protocol": "Tetranychus Test (OP-Resistent/Dip Treatment)\nas §2, §1\nBean plants (Phaseolus vulgaris) which are heavily infested by all stages of the greenhouse red spider mite (Tetranychus urticae) are dipped into a preparation of active compound of the desired concentration.\nAfter the desired period of time, the effect in % is determined. 100% means that all spider mites have been killed; 0% means that none of the spider mites have been killed."}}, "data": [{"smiles": "Fc1cccc(F)c1C1=NC(c2cc3ccccc3s2)CC1", "note": "(stereo not drawn) [drawing 86]", "values": [{"measurement": "Kill rate in % after 6 d", "setting": "[1]", "value": 95, "unit": "%"}]}, {"smiles": "Fc1cccc(F)c1C1=NC(c2ccc(-c3ccc(OC(F)(F)F)cc3)s2)CC1", "note": "(stereo not drawn) [drawing 90]", "values": [{"measurement": "Kill rate in % after 6 d", "setting": "[2]", "value": 90, "unit": "%"}]}, {"smiles": "Fc1cccc(F)c1C1=NC(c2cc3sc(-c4ccc(OC(F)(F)F)cc4)cc3s2)CC1", "note": "(stereo not drawn) [drawing 97]", "values": [{"measurement": "Kill rate in % after 7 d", "setting": "[3]", "value": 80, "unit": "%"}]}]}
